{
  "source": "ChEMBL document CHEMBL5726379",
  "about": "“Selective histone deactylase 6 inhibitors” (2017)",
  "key": {"[1]": {"biological_target": "T1, Protein deacetylase HDAC6 (Homo sapiens, UniProt Q9UBN7)", "T1 sequence (Q9UBN7 whole entry)": "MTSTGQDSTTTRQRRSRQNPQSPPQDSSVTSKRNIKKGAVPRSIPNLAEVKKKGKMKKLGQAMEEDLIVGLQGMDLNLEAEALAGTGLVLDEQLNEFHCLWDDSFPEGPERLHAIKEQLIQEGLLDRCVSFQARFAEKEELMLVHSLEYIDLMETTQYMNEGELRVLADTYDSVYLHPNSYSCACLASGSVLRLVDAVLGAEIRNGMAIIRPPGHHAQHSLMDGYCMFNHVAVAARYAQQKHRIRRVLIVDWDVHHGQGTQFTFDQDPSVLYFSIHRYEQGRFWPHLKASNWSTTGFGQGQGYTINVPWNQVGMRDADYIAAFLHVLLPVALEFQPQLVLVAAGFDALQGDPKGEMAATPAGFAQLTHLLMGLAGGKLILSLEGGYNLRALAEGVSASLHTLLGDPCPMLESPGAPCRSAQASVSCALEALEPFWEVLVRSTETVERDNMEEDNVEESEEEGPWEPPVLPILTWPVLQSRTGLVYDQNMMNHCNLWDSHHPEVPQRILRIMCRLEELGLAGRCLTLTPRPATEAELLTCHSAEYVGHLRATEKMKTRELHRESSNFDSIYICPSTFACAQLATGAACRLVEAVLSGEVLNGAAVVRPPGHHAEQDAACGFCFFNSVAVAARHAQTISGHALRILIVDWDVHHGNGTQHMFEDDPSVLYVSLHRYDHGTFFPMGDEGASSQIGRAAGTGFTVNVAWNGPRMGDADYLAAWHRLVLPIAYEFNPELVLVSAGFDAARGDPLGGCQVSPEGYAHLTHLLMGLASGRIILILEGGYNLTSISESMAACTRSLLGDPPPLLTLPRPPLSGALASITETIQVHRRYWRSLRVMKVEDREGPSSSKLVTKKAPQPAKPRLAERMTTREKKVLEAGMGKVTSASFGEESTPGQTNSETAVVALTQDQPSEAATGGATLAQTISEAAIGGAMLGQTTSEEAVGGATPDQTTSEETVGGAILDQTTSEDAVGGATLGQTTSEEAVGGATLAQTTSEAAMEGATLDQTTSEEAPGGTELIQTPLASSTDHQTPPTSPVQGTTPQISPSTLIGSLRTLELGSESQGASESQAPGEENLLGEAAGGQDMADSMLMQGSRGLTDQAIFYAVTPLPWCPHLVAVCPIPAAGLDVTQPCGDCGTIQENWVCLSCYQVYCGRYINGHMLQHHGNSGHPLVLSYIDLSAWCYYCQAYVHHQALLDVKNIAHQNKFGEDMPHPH"}, "Histone deacetylase 1": {"biological_target": "Histone deacetylase 1 (Homo sapiens, UniProt Q13547)", "sequence (Q13547 whole entry)": "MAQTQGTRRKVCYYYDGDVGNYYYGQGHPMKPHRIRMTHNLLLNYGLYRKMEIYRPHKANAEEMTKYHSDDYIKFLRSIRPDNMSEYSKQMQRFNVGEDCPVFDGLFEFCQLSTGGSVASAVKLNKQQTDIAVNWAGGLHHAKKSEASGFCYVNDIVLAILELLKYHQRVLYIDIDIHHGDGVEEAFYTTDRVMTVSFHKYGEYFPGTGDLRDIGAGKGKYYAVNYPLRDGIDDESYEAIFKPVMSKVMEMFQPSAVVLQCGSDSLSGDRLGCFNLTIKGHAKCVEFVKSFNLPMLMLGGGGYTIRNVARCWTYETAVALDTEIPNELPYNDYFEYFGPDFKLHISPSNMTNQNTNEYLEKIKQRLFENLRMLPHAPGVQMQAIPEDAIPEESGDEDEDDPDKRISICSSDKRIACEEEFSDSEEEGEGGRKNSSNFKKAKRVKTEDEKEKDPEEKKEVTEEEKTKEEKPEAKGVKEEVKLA"}},
  "data": [
    {"smiles": "CCCCN(Cc1ccc(C(=O)NO)cc1)C(=O)Nc1cccc(N(C)C)c1", "values": [
      {"measurement": "IC50", "setting": "[1]", "result": 6.12, "unit": "nM"},
      {"measurement": "IC50", "setting": "Histone deacetylase 1", "result": 604, "unit": "nM"}
    ]},
    {"smiles": "O=C(NCc1ccc(C(=O)NO)cc1)Nc1ccc(CO)cc1", "values": [
      {"measurement": "IC50", "setting": "[1]", "result": 8.3, "unit": "nM"},
      {"measurement": "IC50", "setting": "Histone deacetylase 1", "result": 1060, "unit": "nM"}
    ]}
  ]
}
